Assay results from ChEMBL document CHEMBL4219087, “Investigation of multi-target-directed ligands (MTDLs) with butyrylcholinesterase (BuChE) and indoleamine 2,3-dioxygenase 1 (IDO1) inhibition: The design, synthesis of miconazole analogues targeting Alzheimer's disease” (Bioorg Med Chem, 2018).

System: Mus musculus
Test: Hepatotoxicity in ICR mouse assessed as serum ALT level at 15 mg/kg, ig after 8 hrs
Assay type: toxicity, organism-based
Details: in vivo, po

| SMILES | Activity |
| --- | --- |
| COc1ccc(COC(Cn2ccnc2)c2ccc(Cl)cc2Cl)cc1 (centres undefined) | Non-Toxic |
| COc1cccc(COC(Cn2ccnc2)c2ccc(Cl)cc2Cl)c1 (centres undefined) | Non-Toxic |

System: Mus musculus
Test: Hepatotoxicity in ICR mouse assessed as fatty degeneration of hepatocytes surrounding intermediate and periportal zones at 15 mg/kg, ig after 30 hrs by hematoxylin and eosin staining-based assay
Assay type: toxicity, organism-based
Details: in vivo, po

| SMILES | Activity |
| --- | --- |
| COc1ccc(COC(Cn2ccnc2)c2ccc(Cl)cc2Cl)cc1 (centres undefined) | Non-Toxic |
| COc1cccc(COC(Cn2ccnc2)c2ccc(Cl)cc2Cl)c1 (centres undefined) | Non-Toxic |

Biological target: Acetylcholinesterase (Electrophorus electricus, UniProt O42275)
Sequence (O42275 whole entry): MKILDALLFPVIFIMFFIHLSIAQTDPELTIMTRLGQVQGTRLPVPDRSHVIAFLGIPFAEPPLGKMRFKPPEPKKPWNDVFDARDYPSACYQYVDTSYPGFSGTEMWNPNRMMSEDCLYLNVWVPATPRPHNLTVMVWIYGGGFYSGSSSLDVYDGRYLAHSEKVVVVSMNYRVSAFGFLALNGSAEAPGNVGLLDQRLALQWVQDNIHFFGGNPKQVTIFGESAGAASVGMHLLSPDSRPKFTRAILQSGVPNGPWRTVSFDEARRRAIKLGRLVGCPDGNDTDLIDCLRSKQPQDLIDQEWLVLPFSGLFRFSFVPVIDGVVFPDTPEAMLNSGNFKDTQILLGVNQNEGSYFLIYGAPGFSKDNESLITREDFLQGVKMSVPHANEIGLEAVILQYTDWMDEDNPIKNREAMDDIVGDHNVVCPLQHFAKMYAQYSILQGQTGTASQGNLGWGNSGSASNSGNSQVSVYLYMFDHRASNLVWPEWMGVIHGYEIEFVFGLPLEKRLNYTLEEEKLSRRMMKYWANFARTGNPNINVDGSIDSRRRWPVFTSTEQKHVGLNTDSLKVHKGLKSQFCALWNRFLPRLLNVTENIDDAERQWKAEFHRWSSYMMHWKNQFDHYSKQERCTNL
Test: Inhibition of electric eel AChE using acetylthiocholine iodide as substrate preincubated for 5 mins followed by substrate addition measured after 2 mins by modified Ellman assay
Details: not given

| SMILES | IC50 |
| --- | --- |
| CC(C)(C)c1ccc(COC(Cn2ccnc2)c2ccc(Cl)cc2Cl)cc1 (centres undefined) | 24.3 µM |
| Cc1ccc(COC(Cn2ccnc2)c2ccc(Cl)cc2Cl)cc1 (centres undefined) | 26.9 µM |
| COc1ccc(COC(Cn2ccnc2)c2ccc(Cl)cc2Cl)cc1 (centres undefined) | 73.1 µM |
| Fc1ccc(COC(Cn2ccnc2)c2ccc(Cl)cc2Cl)cc1 (centres undefined) | 33 µM |
| Cc1cccc(COC(Cn2ccnc2)c2ccc(Cl)cc2Cl)c1 (centres undefined) | 30.7 µM |
| Fc1cccc(F)c1COC(Cn1ccnc1)c1ccc(Cl)cc1Cl (centres undefined) | 176 µM |
| Clc1ccc(C(Cn2ccnc2)OCc2ccc(Br)cc2)c(Cl)c1 (centres undefined) | 19.5 µM |
| COc1cccc(COC(Cn2ccnc2)c2ccc(Cl)cc2Cl)c1 (centres undefined) | 81.3 µM |
| Cc1ccc(COC(Cn2ccnc2)c2ccc(Cl)cc2Cl)cc1C (centres undefined) | 17.3 µM |
| Cc1ccccc1COC(Cn1ccnc1)c1ccc(Cl)cc1Cl (centres undefined) | 37.5 µM |

Biological target: Indoleamine 2,3-dioxygenase 1 (Homo sapiens, UniProt P14902)
Sequence (P14902 whole entry): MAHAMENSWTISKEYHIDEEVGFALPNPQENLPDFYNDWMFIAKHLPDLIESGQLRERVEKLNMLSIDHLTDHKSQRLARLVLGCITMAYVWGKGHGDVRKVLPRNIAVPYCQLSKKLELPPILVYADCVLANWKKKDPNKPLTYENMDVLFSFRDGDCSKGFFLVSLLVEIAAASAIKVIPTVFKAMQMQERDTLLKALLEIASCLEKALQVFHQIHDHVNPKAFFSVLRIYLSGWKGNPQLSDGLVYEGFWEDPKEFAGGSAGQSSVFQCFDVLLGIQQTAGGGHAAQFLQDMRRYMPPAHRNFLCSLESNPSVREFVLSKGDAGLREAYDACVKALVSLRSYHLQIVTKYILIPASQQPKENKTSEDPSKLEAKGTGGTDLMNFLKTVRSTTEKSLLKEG
Test: Inhibition of human recombinant IDO1 using L-tryptophan as substrate after 30 mins by fluorimetric analysis
Details: not given

| SMILES | IC50 |
| --- | --- |
| CC(C)(C)c1ccc(COC(Cn2ccnc2)c2ccc(Cl)cc2Cl)cc1 (centres undefined) | 4.4 µM |
| Cc1ccc(COC(Cn2ccnc2)c2ccc(Cl)cc2Cl)cc1 (centres undefined) | 2 µM |
| COc1ccc(COC(Cn2ccnc2)c2ccc(Cl)cc2Cl)cc1 (centres undefined) | 1 µM |
| Fc1ccc(COC(Cn2ccnc2)c2ccc(Cl)cc2Cl)cc1 (centres undefined) | 4 µM |
| Cc1cccc(COC(Cn2ccnc2)c2ccc(Cl)cc2Cl)c1 (centres undefined) | 1.2 µM |
| Fc1cccc(F)c1COC(Cn1ccnc1)c1ccc(Cl)cc1Cl (centres undefined) | 4.2 µM |
| Clc1ccc(C(Cn2ccnc2)OCc2ccc(Br)cc2)c(Cl)c1 (centres undefined) | 5.7 µM |
| COc1cccc(COC(Cn2ccnc2)c2ccc(Cl)cc2Cl)c1 (centres undefined) | 2.8 µM |
| Cc1ccc(COC(Cn2ccnc2)c2ccc(Cl)cc2Cl)cc1C (centres undefined) | 2.2 µM |
| Cc1ccccc1COC(Cn1ccnc1)c1ccc(Cl)cc1Cl (centres undefined) | 2.2 µM |

System: Mus musculus
Test: Hepatotoxicity in ICR mouse assessed as serum AST level at 15 mg/kg, ig after 22 hrs
Assay type: toxicity, organism-based
Details: in vivo, po

| SMILES | Activity |
| --- | --- |
| COc1ccc(COC(Cn2ccnc2)c2ccc(Cl)cc2Cl)cc1 (centres undefined) | Non-Toxic |
| COc1cccc(COC(Cn2ccnc2)c2ccc(Cl)cc2Cl)c1 (centres undefined) | Non-Toxic |

System: not listed separately
Test: Selectivity index, ratio of IC50 for electric eel AChE to IC50 for equine serum BChE
Details: not given

| SMILES | Ratio IC50 |
| --- | --- |
| CC(C)(C)c1ccc(COC(Cn2ccnc2)c2ccc(Cl)cc2Cl)cc1 (centres undefined) | 0.5 |
| Cc1ccc(COC(Cn2ccnc2)c2ccc(Cl)cc2Cl)cc1 (centres undefined) | 2.5 |
| COc1ccc(COC(Cn2ccnc2)c2ccc(Cl)cc2Cl)cc1 (centres undefined) | 4.4 |
| Fc1ccc(COC(Cn2ccnc2)c2ccc(Cl)cc2Cl)cc1 (centres undefined) | 2.3 |
| Cc1cccc(COC(Cn2ccnc2)c2ccc(Cl)cc2Cl)c1 (centres undefined) | 2.1 |
| Fc1cccc(F)c1COC(Cn1ccnc1)c1ccc(Cl)cc1Cl (centres undefined) | 9.2 |
| Clc1ccc(C(Cn2ccnc2)OCc2ccc(Br)cc2)c(Cl)c1 (centres undefined) | 1.5 |
| COc1cccc(COC(Cn2ccnc2)c2ccc(Cl)cc2Cl)c1 (centres undefined) | 9.9 |
| Cc1ccc(COC(Cn2ccnc2)c2ccc(Cl)cc2Cl)cc1C (centres undefined) | 1.6 |
| Cc1ccccc1COC(Cn1ccnc1)c1ccc(Cl)cc1Cl (centres undefined) | 2 |

System: Mus musculus
Test: Hepatotoxicity in ICR mouse assessed as serum ALT level at 15 mg/kg, ig after 36 hrs
Assay type: toxicity, organism-based
Details: in vivo, po

| SMILES | Activity |
| --- | --- |
| COc1ccc(COC(Cn2ccnc2)c2ccc(Cl)cc2Cl)cc1 (centres undefined) | Non-Toxic |
| COc1cccc(COC(Cn2ccnc2)c2ccc(Cl)cc2Cl)c1 (centres undefined) | Non-Toxic |

Biological target: Cholinesterase (Equus caballus, UniProt P81908)
Sequence (P81908 whole entry): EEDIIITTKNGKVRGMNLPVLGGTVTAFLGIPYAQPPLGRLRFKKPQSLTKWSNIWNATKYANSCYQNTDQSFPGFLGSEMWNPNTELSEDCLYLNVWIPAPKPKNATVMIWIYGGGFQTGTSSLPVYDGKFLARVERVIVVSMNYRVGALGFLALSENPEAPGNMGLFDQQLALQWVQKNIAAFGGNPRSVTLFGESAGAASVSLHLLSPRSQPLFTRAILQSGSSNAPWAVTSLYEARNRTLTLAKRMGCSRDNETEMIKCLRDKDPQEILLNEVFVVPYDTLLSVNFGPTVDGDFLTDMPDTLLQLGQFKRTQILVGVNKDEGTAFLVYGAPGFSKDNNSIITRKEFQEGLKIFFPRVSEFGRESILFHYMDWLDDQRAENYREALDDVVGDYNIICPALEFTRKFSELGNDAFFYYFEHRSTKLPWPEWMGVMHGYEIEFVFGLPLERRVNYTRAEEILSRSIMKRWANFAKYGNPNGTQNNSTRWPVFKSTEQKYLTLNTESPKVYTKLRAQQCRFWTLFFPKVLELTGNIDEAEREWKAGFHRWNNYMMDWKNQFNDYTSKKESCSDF
Test: Inhibition of equine serum BChE using butyrylthiocholine iodide as substrate preincubated for 5 mins followed by substrate addition measured after 2 mins by modified Ellman assay
Details: not given

| SMILES | IC50 |
| --- | --- |
| CC(C)(C)c1ccc(COC(Cn2ccnc2)c2ccc(Cl)cc2Cl)cc1 (centres undefined) | 46.3 µM |
| Cc1ccc(COC(Cn2ccnc2)c2ccc(Cl)cc2Cl)cc1 (centres undefined) | 10.9 µM |
| COc1ccc(COC(Cn2ccnc2)c2ccc(Cl)cc2Cl)cc1 (centres undefined) | 16.5 µM |
| Fc1ccc(COC(Cn2ccnc2)c2ccc(Cl)cc2Cl)cc1 (centres undefined) | 14.8 µM |
| Cc1cccc(COC(Cn2ccnc2)c2ccc(Cl)cc2Cl)c1 (centres undefined) | 14.6 µM |
| Fc1cccc(F)c1COC(Cn1ccnc1)c1ccc(Cl)cc1Cl (centres undefined) | 19.2 µM |
| Clc1ccc(C(Cn2ccnc2)OCc2ccc(Br)cc2)c(Cl)c1 (centres undefined) | 13.1 µM |
| COc1cccc(COC(Cn2ccnc2)c2ccc(Cl)cc2Cl)c1 (centres undefined) | 8.3 µM |
| Cc1ccc(COC(Cn2ccnc2)c2ccc(Cl)cc2Cl)cc1C (centres undefined) | 11.2 µM |
| Cc1ccccc1COC(Cn1ccnc1)c1ccc(Cl)cc1Cl (centres undefined) | 18.4 µM |

System: Mus musculus
Test: Hepatotoxicity in ICR mouse assessed as serum ALT level at 15 mg/kg, ig after 22 hrs
Assay type: toxicity, organism-based
Details: in vivo, po

| SMILES | Activity |
| --- | --- |
| COc1ccc(COC(Cn2ccnc2)c2ccc(Cl)cc2Cl)cc1 (centres undefined) | Non-Toxic |
| COc1cccc(COC(Cn2ccnc2)c2ccc(Cl)cc2Cl)c1 (centres undefined) | Non-Toxic |

System: Mus musculus
Test: Hepatotoxicity in ICR mouse assessed as serum AST level at 15 mg/kg, ig after 8 hrs
Assay type: toxicity, organism-based
Details: in vivo, po

| SMILES | Activity |
| --- | --- |
| COc1ccc(COC(Cn2ccnc2)c2ccc(Cl)cc2Cl)cc1 (centres undefined) | Non-Toxic |
| COc1cccc(COC(Cn2ccnc2)c2ccc(Cl)cc2Cl)c1 (centres undefined) | Non-Toxic |

System: Mus musculus
Test: Hepatotoxicity in ICR mouse assessed as pericentral necrosis of hepatocytes surrounding intermediate and periportal zones at 15 mg/kg, ig after 30 hrs by hematoxylin and eosin staining-based assay
Assay type: toxicity, organism-based
Details: in vivo, po

| SMILES | Activity |
| --- | --- |
| COc1ccc(COC(Cn2ccnc2)c2ccc(Cl)cc2Cl)cc1 (centres undefined) | Non-Toxic |
| COc1cccc(COC(Cn2ccnc2)c2ccc(Cl)cc2Cl)c1 (centres undefined) | Non-Toxic |

System: Mus musculus
Test: Hepatotoxicity in ICR mouse assessed as serum AST level at 15 mg/kg, ig after 36 hrs
Assay type: toxicity, organism-based
Details: in vivo, po

| SMILES | Activity |
| --- | --- |
| COc1ccc(COC(Cn2ccnc2)c2ccc(Cl)cc2Cl)cc1 (centres undefined) | Non-Toxic |
| COc1cccc(COC(Cn2ccnc2)c2ccc(Cl)cc2Cl)c1 (centres undefined) | Non-Toxic |

System: Mus musculus
Test: Reversal of scopolamine-induced cognitive function impairment in ICR mouse assessed as escape latency time at 15 mg/kg, po dosed 30 mins prior to scopolamine treatment by Morris water maze test (reference value: 40.5 sec)
Assay type: functional
Details: not given

| SMILES | Time |
| --- | --- |
| COc1ccc(COC(Cn2ccnc2)c2ccc(Cl)cc2Cl)cc1 (centres undefined) | 13.4 s |
| Nc1c2c(nc3ccccc13)CCCC2 [TACRINE] | 25.9 s |
| COc1cccc(COC(Cn2ccnc2)c2ccc(Cl)cc2Cl)c1 (centres undefined) | 19.7 s |
